Measured values published in US8030286B2, “Methods and means for increasing resistance to cell damage” (University of Medicine and Dentistry of New Jersey, priority 2004, dated 2011).

Tests used:
eEF2 kinase+/+ MEFs = assay: MTT viability assay, wild type MEFs; assay type: cell-based, mouse
Protocol: (§1) MTT Survival Assay: MEFs used in this study (2×10^3 cells per well of a 96 well plate) are incubated in the presence of indicated drugs for 24 hours. Cell viability is determined using the standard MTT assay^30. Each experiment is repeated three times for each drug and each cell line using three parallel wells for each drug concentration. For colony formation assay cells are treated with indicated drugs for 24 hours and replated with complete DMEM at low density (500 cells per well in 6-well plate) in duplicate. After 10 days colonies are stained with 10 mg/ml methylene blue (Sigma Inc.) in 50% methanol.
(§2) The possible correlation between activation of eEF2 kinase and the resultant phosphorylation of eEF2 and Ca^2+ ionophore-induced cell death is addressed by comparing the viability of wild type and eEF2 kinase knockout mouse embryonic fibroblasts (MEFs) after incubation of each with different concentrations of ionomycin.

eEF2 kinase−/− MEFs = assay: MTT viability assay, eEF2 kinase knockout MEFs; assay type: cell-based, mouse
Protocol: as §1, §2

[1] = test system: wild type mouse embryonic fibroblasts (MEFs); assay: Cell death in phase-contrast images, wild type MEFs; assay type: cell-based; conditions: 1.6 μM doxorubicin, 24 hours
eEF2K-deficient cells = assay: Cell death in phase-contrast images, eEF2K-deficient MEFs; assay type: cell-based, mouse; conditions: 1.6 μM doxorubicin, 24 hours

Cc1ccc(C(=O)Cn2c3c(sc2=N)CCCC3)cc1 [PFTα, pifithrin α]
effect of p53 inactivation on drug sensitivity (DOX) (eEF2 kinase+/+ MEFs; DOX 24 h, MTT assay): strongly decreasing sensitivity | effect of p53 inactivation on drug sensitivity (DOX) (eEF2 kinase−/− MEFs; DOX 24 h, MTT assay): only slightly affected

COc1cccc2c1C(=O)c1c(O)c3c(c(O)c1C2=O)C[C@@](O)(C(=O)CO)C[C@@H]3O[C@H]1C[C@H](N)[C@H](O)[C@H](C)O1 [doxorubicin]
cell death [1]: significant cell death | cell death (eEF2K-deficient cells): much less cell death

C[C@H](CCC(=O)O)C[C@H](C)C[C@H](C)C(=O)/C=C(\O)[C@H](C)C[C@H](C)C/C=C/[C@@H](C)[C@@H](O)[C@@H](C)[C@@H](O)C[C@@H]1CC[C@@](C)([C@H]2CC[C@@](C)([C@@H](C)O)O2)O1 [ionomycin]
cells die (eEF2 kinase+/+ MEFs; 10 μM ionomycin, incubation for 24 h): approximately 70% | cell viability (eEF2 kinase+/+ MEFs; increasing concentrations of ionomycin from 1 to 10 μM, 24 h): progressive decrease of cell viability | effect on the viability (eEF2 kinase−/− MEFs; same concentrations of ionomycin (1 to 10 μM), 24 h): virtually no effect
